Laboratory results published in PubChem BioAssay (NCI).
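Exposure lasted 48 hours, with cells grown in 96-well plates and compounds tested at five concentrations. TGI: concentration producing complete growth inhibition.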 Where a SMILES comes first, the peptide text is derived from it. The star is where a group is joined. Boc = CC(C)(C)OC(=O)*

How the values were obtained:
Assay in all cases: NCI-60 cell line screen, 48 h
[1] = system: CCRF-CEM leukemia
[2] = system: MDA-MB-231 breast
[3] = system: NCI-H460 lung
[4] = system: IGROV1 ovarian
[5] = system: SF-268 CNS
[6] = system: SF-295 CNS
[7] = system: DU-145 prostate
[8] = system: HOP-62 NSCLC
[9] = system: SK-MEL-5 melanoma
[10] = system: HCC-2998 colon
[11] = system: UACC-257 melanoma
[12] = system: CAKI-1 renal
[13] = system: MDA-N
[14] = system: HCT-15 colon
[15] = system: SNB-19 CNS
[16] = system: TK-10 renal
[17] = system: U251 CNS
[18] = system: NCI-H226 lung
[19] = system: HS 578T breast
[20] = system: A549 NSCLC
[21] = system: MALME-3M melanoma
[22] = system: SK-MEL-28 melanoma
[23] = system: NCI-H522 lung
[24] = system: HCT-116 colon
[25] = system: SK-OV-3 ovarian
[26] = system: RPMI-8226 leukemia
[27] = system: HOP-92 NSCLC
[28] = system: K-562 leukemia
[29] = system: M14 melanoma
[30] = system: SNB-75 CNS
[31] = system: 786-0 renal
[32] = system: PC-3 prostate
[33] = system: SN12C renal
[34] = system: OVCAR-8 ovarian
[35] = system: MCF7 breast
[36] = system: UACC-62 melanoma
[37] = system: OVCAR-5 ovarian
[38] = system: EKVX NSCLC
[39] = system: SF-539 CNS
[40] = system: A498 renal
[41] = system: OVCAR-3 ovarian
[42] = system: SK-MEL-2 melanoma
[43] = system: MOLT-4 leukemia
[44] = system: LOX IMVI melanoma
[45] = system: UO-31 renal
[46] = system: SR leukemia
[47] = system: HT29 colon
[48] = system: ACHN renal
[49] = system: COLO 205 colon
[50] = system: NCI/ADR-RES ovarian
[51] = system: MDA-MB-435
[52] = system: KM12 colon
[53] = system: HL-60(TB) leukemia
[54] = system: RXF 393 renal
[55] = system: NCI-H23 lung
[56] = system: SW-620 colon
[57] = system: OVCAR-4 ovarian
[58] = system: T-47D breast

For `Cc1nc2ccc(Cl)cc2c(Cl)c1CCCl`, the TGI [1] was over 100 µM, the TGI [2] was over 100 µM and the TGI [3] was over 100 µM. It also gave a TGI [4] of over 100 µM, a TGI [5] of over 100 µM and a TGI [6] of over 100 µM. The TGI [7] was over 100 µM, the TGI [8] was over 100 µM and the TGI [9] was over 100 µM. For the same molecule, the TGI [10] was over 100 µM, the TGI [11] was over 100 µM and the TGI [12] was over 100 µM. The TGI [13] was 40.9 µM, the TGI [14] was over 100 µM and the TGI [15] was over 100 µM. For the same molecule, the TGI [16] was over 100 µM, the TGI [17] was over 100 µM and the TGI [18] was over 100 µM. The TGI [19] was over 100 µM, the TGI [20] was over 100 µM and the TGI [21] was over 100 µM. The TGI [22] was over 100 µM, the TGI [23] was over 100 µM and the TGI [24] was over 100 µM. The TGI [25] was over 100 µM, the TGI [26] was over 100 µM and the TGI [27] was 94.2 µM. The TGI [28] was over 100 µM, the TGI [29] was over 100 µM and the TGI [30] was over 100 µM. For the same molecule, the TGI [31] was over 100 µM, the TGI [32] was over 100 µM and the TGI [33] was over 100 µM. The TGI [34] was over 100 µM, the TGI [35] was 99.2 µM and the TGI [36] was over 100 µM. It also gave a TGI [37] of over 100 µM, a TGI [38] of over 100 µM and a TGI [39] of over 100 µM. For the same molecule, the TGI [40] was over 100 µM, the TGI [41] was over 100 µM and the TGI [42] was over 100 µM. For the same molecule, the TGI [43] was over 100 µM, the TGI [44] was over 100 µM and the TGI [45] was over 100 µM. For the same molecule, the TGI [46] was over 100 µM, the TGI [47] was over 100 µM and the TGI [48] was over 100 µM. It also gave a TGI [49] of over 100 µM, a TGI [50] of over 100 µM and a TGI [51] of 31.2 µM. It also gave a TGI [52] of over 100 µM, a TGI [53] of over 100 µM and a TGI [54] of over 100 µM. For the same molecule, the TGI [55] was over 100 µM and the TGI [56] was over 100 µM.

In the case of `CC(C)(C)OC(=O)NC(Cc1ccccc1)C(=O)N1CCCC1C(N)=O` (stereo not drawn) (Boc-Phe-Pro-NH2; configuration not given here), the TGI [1] is reported as over 100 µM, the TGI [2] is reported as over 100 µM and the TGI [3] is reported as over 100 µM. The TGI [4] was over 100 µM, the TGI [5] was over 100 µM and the TGI [57] was over 100 µM. The TGI [6] was over 100 µM, the TGI [7] was over 100 µM and the TGI [8] was over 100 µM. It also gave a TGI [9] of over 100 µM, a TGI [10] of over 100 µM and a TGI [11] of over 100 µM. It also gave a TGI [12] of over 100 µM, a TGI [13] of over 100 µM and a TGI [14] of over 100 µM. For the same molecule, the TGI [15] was over 100 µM, the TGI [16] was over 100 µM and the TGI [20] was over 100 µM. The TGI [21] was over 100 µM, the TGI [22] was over 100 µM and the TGI [23] was over 100 µM. For the same molecule, the TGI [24] was over 100 µM, the TGI [25] was over 100 µM and the TGI [26] was over 100 µM. The TGI [27] was 74 µM, the TGI [28] was over 100 µM and the TGI [29] was over 100 µM. For the same molecule, the TGI [32] was over 100 µM, the TGI [34] was over 100 µM and the TGI [35] was over 100 µM. For the same molecule, the TGI [36] was over 100 µM, the TGI [58] was over 100 µM and the TGI [38] was over 100 µM. For the same molecule, the TGI [41] was over 100 µM, the TGI [43] was over 100 µM and the TGI [44] was over 100 µM. The TGI [46] was over 100 µM, the TGI [47] was over 100 µM and the TGI [48] was over 100 µM. For the same molecule, the TGI [49] was over 100 µM, the TGI [51] was over 100 µM and the TGI [53] was over 100 µM. For the same molecule, the TGI [56] was over 100 µM.
